Results published in PubChem BioAssay AID248 (DTP/NCI, 2004).
Where “and” joins values, the source holds several entries; their conditions need not be identical. Identical values can stand only once. Inconclusive results and toxic doses are left out. Cut-off read from the data, not from the text of the source: active = T/C of 150% or more; inactive = T/C below 125%.

Tested on: L1210 leukemia ip in BDF1 mice, survival T/C
Assay: NCI In Vivo Anticancer Drug Screen. Data for tumor model L1210 Leukemia (intraperitoneal) in B6D2F1 (BDF1) mice
Conditions: endpoint: mean survival time, higher = longer survival
In short: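 Ratio derived from survival: compound-dosed mice over vehicle-dosed mice, all bearing a transplantable tumor.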

[1] = dose: 25.0 mg/kg/injection, schedule: Q01DX009 (ip), vehicle: Klucel (hydroxypropylcellulose) (HPC)
[2] = dose: 100.0 mg/kg/injection, schedule: Q01DX009 (ip), vehicle: saline with Tween-80
[3] = dose: 200.0 mg/kg/injection, schedule: Q01DX009 (ip), vehicle: saline with Tween-80
[4] = dose: 400.0 mg/kg/injection, schedule: Q01DX009 (ip), vehicle: saline with Tween-80
[5] = dose: 100.0 mg/kg/injection, schedule: Q01DX001 (ip), vehicle: saline
[6] = dose: 200.0 mg/kg/injection, schedule: Q01DX001 (ip), vehicle: saline
[7] = dose: 100.0 mg/kg/injection, schedule: Q01DX001 (ip), vehicle: carboxymethylcellulose (CMC)
[8] = dose: 200.0 mg/kg/injection, schedule: Q01DX001 (ip), vehicle: carboxymethylcellulose (CMC)
[9] = dose: 400.0 mg/kg/injection, schedule: Q01DX001 (ip), vehicle: carboxymethylcellulose (CMC)
[10] = dose: 50.0 mg/kg/injection, schedule: Q01DX009 (ip), vehicle: Klucel (hydroxypropylcellulose) (HPC)
[11] = dose: 100.0 mg/kg/injection, schedule: Q01DX009 (ip), vehicle: Klucel (hydroxypropylcellulose) (HPC)
[12] = dose: 100.0 mg/kg/injection, schedule: Q04DX003 (ip), vehicle: Klucel (hydroxypropylcellulose) (HPC)
[13] = dose: 200.0 mg/kg/injection, schedule: Q04DX003 (ip), vehicle: Klucel (hydroxypropylcellulose) (HPC)
[14] = dose: 100.0 mg/kg/injection, schedule: Q01DX009 (ip), vehicle: saline
[15] = dose: 100.0 mg/kg/injection, schedule: Q04DX003 (ip), vehicle: saline
[16] = dose: 200.0 mg/kg/injection, schedule: Q01DX009 (ip), vehicle: saline
[17] = dose: 200.0 mg/kg/injection, schedule: Q04DX003 (ip), vehicle: saline
[18] = dose: 400.0 mg/kg/injection, schedule: Q01DX009 (ip), vehicle: saline
[19] = dose: 100.0 mg/kg/injection, schedule: Q04DX003 (ip), vehicle: saline with Tween-80
[20] = dose: 200.0 mg/kg/injection, schedule: Q04DX003 (ip), vehicle: saline with Tween-80

Measured: T/C

S=C=NCC(Br)CBr (centres undefined)
inactive: dose: 6.25 mg/kg/injection, schedule: Q01DX009 (ip), vehicle: Klucel (hydroxypropylcellulose) (HPC) 104 % of control | dose: 12.5 mg/kg/injection, schedule: Q01DX009 (ip), vehicle: Klucel (hydroxypropylcellulose) (HPC) 103 % of control | dose: 12.5 mg/kg/injection, schedule: Q04DX003 (ip), vehicle: Klucel (hydroxypropylcellulose) (HPC) 95 % of control | [1] 87 % of control | dose: 25.0 mg/kg/injection, schedule: Q04DX003 (ip), vehicle: Klucel (hydroxypropylcellulose) (HPC) 105 % of control

CCOC(OCC)C(=O)C(C#N)c1ccc(C#N)cc1 (centres undefined)
inactive: dose: 3.12 mg/kg/injection, schedule: Q01DX009 (ip), vehicle: DMSO 90 % of control | dose: 6.25 mg/kg/injection, schedule: Q01DX009 (ip), vehicle: DMSO 88 % of control | dose: 12.5 mg/kg/injection, schedule: Q01DX009 (ip), vehicle: DMSO 92 % of control and 88 % of control

Clc1nc(Sc2ccc(Br)cc2)c(Cl)c(Sc2ccc(Br)cc2)n1
inactive: dose: 62.5 mg/kg/injection, schedule: Q01DX001 (ip), vehicle: Klucel (hydroxypropylcellulose) (HPC) 95 % of control and 89 % of control | dose: 125.0 mg/kg/injection, schedule: Q01DX001 (ip), vehicle: Klucel (hydroxypropylcellulose) (HPC) 94 % of control | dose: 250.0 mg/kg/injection, schedule: Q01DX001 (ip), vehicle: Klucel (hydroxypropylcellulose) (HPC) 94 % of control and 98 % of control

CC(C)(O)C1CC1
inactive: dose: 100.0 mg/kg/injection, schedule: Q01DX005 (ip), vehicle: saline with Tween-80 97 % of control | [2] 88 % of control | dose: 100.0 mg/kg/injection, schedule: Q04DX002 (ip), vehicle: saline with Tween-80 101 % of control | dose: 200.0 mg/kg/injection, schedule: Q01DX005 (ip), vehicle: saline with Tween-80 94 % of control | [3] 94 % of control | dose: 200.0 mg/kg/injection, schedule: Q04DX002 (ip), vehicle: saline with Tween-80 108 % of control | dose: 400.0 mg/kg/injection, schedule: Q01DX005 (ip), vehicle: saline with Tween-80 101 % of control | [4] 91 % of control | dose: 400.0 mg/kg/injection, schedule: Q04DX002 (ip), vehicle: saline with Tween-80 96 % of control

CCN(CC)COC(C)=O
inactive: [5] 103 % of control | [6] 106 % of control | dose: 400.0 mg/kg/injection, schedule: Q01DX001 (ip), vehicle: saline 106 % of control

COc1ccc(-c2ccccc2C(=O)O)cc1
inactive: [7] 107 % of control | [8] 96 % of control | [9] 100 % of control

O=C1NC(c2ccccc2Cl)Nc2ccccc21 (centres undefined)
inactive: [10] 103 % of control | [11] 101 % of control | dose: 150.0 mg/kg/injection, schedule: Q01DX009 (ip), vehicle: Klucel (hydroxypropylcellulose) (HPC) 97 % of control

O=C(Nc1ccc(Nc2ccncc2)cc1)c1ccc(Nc2ccnc3ccc([N+](=O)[O-])cc23)cc1
inactive: [11] 92 % of control | [12] 101 % of control | dose: 200.0 mg/kg/injection, schedule: Q01DX009 (ip), vehicle: Klucel (hydroxypropylcellulose) (HPC) 109 % of control | [13] 97 % of control | dose: 400.0 mg/kg/injection, schedule: Q01DX009 (ip), vehicle: Klucel (hydroxypropylcellulose) (HPC) 95 % of control | dose: 400.0 mg/kg/injection, schedule: Q04DX003 (ip), vehicle: Klucel (hydroxypropylcellulose) (HPC) 108 % of control

O=C1CC(c2ccccc2Cl)N(S(=O)(=O)c2ccccc2)N1 (centres undefined)
inactive: [14] 112 % of control | [15] 104 % of control | [16] 107 % of control | [17] 102 % of control | [18] 106 % of control | dose: 400.0 mg/kg/injection, schedule: Q04DX003 (ip), vehicle: saline 102 % of control

COC(=O)c1ccc(NCC(=N)N)cc1
inactive: [5] 95 % of control | [6] 107 % of control

CC(NC(C)c1ccccc1)c1ccccc1 (centres undefined)
inactive: [10] 102 % of control | [11] 106 % of control | [12] 104 % of control | [13] 100 % of control

Cc1cc(NCCN(C(C)C)C(C)C)nc(/N=C(\N)Nc2ccc(Cl)c(Cl)c2)n1
inactive: dose: 4.69 mg/kg/injection, schedule: Q01DX009 (ip), vehicle: Klucel (hydroxypropylcellulose) (HPC) 95 % of control | dose: 9.38 mg/kg/injection, schedule: Q01DX009 (ip), vehicle: Klucel (hydroxypropylcellulose) (HPC) 93 % of control | dose: 18.75 mg/kg/injection, schedule: Q01DX009 (ip), vehicle: Klucel (hydroxypropylcellulose) (HPC) 87 % of control | dose: 75.0 mg/kg/injection, schedule: Q01DX001 (ip), vehicle: other 94 % of control | dose: 150.0 mg/kg/injection, schedule: Q01DX001 (ip), vehicle: other 105 % of control

CCN(CC)C(=O)C1C=C2c3cccc4c3c(c(Br)n4C)CC2N(C)C1 (centres undefined)
inactive: dose: 12.5 mg/kg/injection, schedule: Q01DX009 (ip), vehicle: saline 102 % of control | dose: 25.0 mg/kg/injection, schedule: Q01DX009 (ip), vehicle: saline 120 % of control | dose: 25.0 mg/kg/injection, schedule: Q04DX003 (ip), vehicle: saline 103 % of control | dose: 50.0 mg/kg/injection, schedule: Q01DX009 (ip), vehicle: saline 112 % of control | dose: 50.0 mg/kg/injection, schedule: Q04DX003 (ip), vehicle: saline 98 % of control | [14] 107 % of control | [15] 104 % of control | [17] 106 % of control

CCCCCCCCCCCCCCCCCCCCCCCCC(O)C(=O)NC(CO)C(O)C(O)CCCCCCCCCCCCCC (centres undefined)
inactive: [2] 88 % of control | [19] 87 % of control | [3] 94 % of control | [20] 92 % of control | [4] 88 % of control | dose: 400.0 mg/kg/injection, schedule: Q04DX003 (ip), vehicle: saline with Tween-80 87 % of control

Cc1ccc(C#CP(C#Cc2ccc(C)cc2)C#Cc2ccc(C)cc2)cc1
inactive: [2] 88 % of control

COc1ccc2c(c1)[nH]c1c(C)nccc12
inactive: dose: 75.0 mg/kg/injection, schedule: Q01DX Z (ip), vehicle: saline 96 % of control | dose: 150.0 mg/kg/injection, schedule: Q01DX Z (ip), vehicle: saline 100 % of control | dose: 300.0 mg/kg/injection, schedule: Q01DX Z (ip), vehicle: saline 96 % of control and 108 % of control

O=C(O)COc1ccccc1
inactive: [1] 108 % of control | [10] 105 % of control | [11] 93 % of control and 88 % of control

COc1ccc(C(=O)c2cc(Br)ccc2O)cc1
inactive: [7] 98 % of control | [8] 100 % of control | [9] 98 % of control

CC1=CC(C)(C)Nc2ccc(Nc3ccccc3)cc21
inactive: dose: 75.0 mg/kg/injection, schedule: Q01DX001 (ip), vehicle: saline 101 % of control | dose: 150.0 mg/kg/injection, schedule: Q01DX001 (ip), vehicle: saline 96 % of control

CC(=O)OC1CCC2(C)C(=CCC3C2CCC2(C)C3CC3C(c4ccccc4)=NN(c4ccccc4)C32C(C)=O)C1 (centres undefined)
inactive: dose: 100.0 mg/kg/injection, schedule: Q04DX002 (ip), vehicle: Klucel (hydroxypropylcellulose) (HPC) 92 % of control | dose: 200.0 mg/kg/injection, schedule: Q04DX002 (ip), vehicle: Klucel (hydroxypropylcellulose) (HPC) 103 % of control | dose: 400.0 mg/kg/injection, schedule: Q04DX002 (ip), vehicle: Klucel (hydroxypropylcellulose) (HPC) 92 % of control

CC1CC(=O)NC(=O)N1Cc1ccccc1 (centres undefined)
inactive: dose: 100.0 mg/kg/injection, schedule: Q01DX Z (ip), vehicle: methylcellulose (MC) 91 % of control | dose: 200.0 mg/kg/injection, schedule: Q01DX Z (ip), vehicle: methylcellulose (MC) 92 % of control

CC(C)CC1(C)NC(=O)NC1=O (centres undefined)
inactive: [2] 97 % of control | [3] 102 % of control | [4] 97 % of control

O=C(CC(O)(C(F)(F)Cl)C(F)(F)Cl)c1ccco1
inactive: dose: 50.0 mg/kg/injection, schedule: Q01DX009 (ip), vehicle: saline with Tween-80 98 % of control | [2] 98 % of control | [19] 103 % of control | [3] 95 % of control | [20] 90 % of control

CNc1nc2ncn(C)c2c(=O)[nH]1
inactive: [14] 97 % of control | [16] 98 % of control | [18] 98 % of control
